Data as given in paper PMC5267425, “Identification of small molecule modulators of HIV-1 Tat and Rev protein accumulation” (Retrovirology, 2017).
“And” between values parts separate entries of the source, which are not always exact repeats. Identical values can stand only once.

Test system: cellular gene expression in HeLa rtTA HIV∆Mls cells
Conditions: 9147791-treated cells, two replicates

## Cc1cc(NCc2cccnc2)n2ncc(-c3ccc(Cl)cc3)c2n1 [Compound 791, 3-(4-chlorophenyl)-5-methyl-N-(3-pyridinylmethyl)pyrazolo[1,5-a]pyrimidin-7-amine]
Gene ACER2
  ACER2 expression level: 0.80 and 0.82
Gene ADO
  ADO expression level: 10.11 and 9.67
Gene AKIRIN2
  AKIRIN2 expression level: 37.74 and 36.76
Gene ALG5
  ALG5 expression level: 17.63 and 17.19
Gene ALKBH8
  ALKBH8 expression level: 2.78 and 2.65
Gene ANKRD40
  ANKRD40 expression level: 18.60 and 17.61
Gene ANKRD50
  ANKRD50 expression level: 8.61 and 9.09
Gene AP3S2
  AP3S2 expression level: 6.99 and 6.84
Gene ARL4D
  ARL4D expression level: 11.90 and 11.09
Gene ARMC10
  ARMC10 expression level: 25.33 and 26.90
Gene ARSJ
  ARSJ expression level: 5.86 and 6.05
Gene ATG4B
  ATG4B expression level: 24.43 and 25.27
Gene ATP6V1B2
  ATP6V1B2 expression level: 44.15 and 44.20
Gene AUP1
  AUP1 expression level: 93.65 and 90.36
Gene AVL9
  AVL9 expression level: 14.40 and 14.91
Gene AXIN1
  AXIN1 expression level: 20.61 and 19.36
Gene B4GALT5
  B4GALT5 expression level: 32.71 and 30.46
Gene BCL7A
  BCL7A expression level: 4.81 and 5.05
Gene BICD1
  BICD1 expression level: 5.82 and 5.80
Gene BIVM
  BIVM expression level: 26.38 and 27.51
Gene BMP2K
  BMP2K expression level: 8.20 and 7.95
Gene C1orf27
  C1orf27 expression level: 10.72 and 10.90
Gene C1orf103
  C1orf103 expression level: 11.43 and 11.72
Gene C1orf131
  C1orf131 expression level: 8.80 and 9.06
Gene C2orf49
  C2orf49 expression level: 7.96 and 8.04
Gene C3orf19
  C3orf19 expression level: 6.85 and 6.46
Gene C4orf27
  C4orf27 expression level: 19.50 and 20.20
Gene C5orf37
  C5orf37 expression level: 8.35 and 8.03
Gene C5orf45
  C5orf45 expression level: 14.96 and 13.97
Gene C5orf51
  C5orf51 expression level: 28.44 and 30.27
Gene C7orf23
  C7orf23 expression level: 28.60 and 29.63
Gene C7orf25
  C7orf25 expression level: 13.24 and 13.90
Gene C9orf6
  C9orf6 expression level: 11.84 and 11.91
Gene C9orf46
  C9orf46 expression level: 19.83 and 20.30
Gene C11orf57
  C11orf57 expression level: 12.07 and 11.50
Gene C11orf73
  C11orf73 expression level: 35.63 and 36.75
Gene C12orf35
  C12orf35 expression level: 5.77 and 5.55
Gene C12orf65
  C12orf65 expression level: 14.51 and 14.73
Gene C12orf73
  C12orf73 expression level: 7.32 and 7.68
Gene C13orf23
  C13orf23 expression level: 12.32 and 12.36
Gene C16orf72
  C16orf72 expression level: 10.69 and 10.57
Gene C17orf80
  C17orf80 expression level: 10.34 and 10.65
Gene C18orf25
  C18orf25 expression level: 6.56 and 6.86
Gene C18orf45
  C18orf45 expression level: 4.86 and 5.04
Gene C19orf55
  C19orf55 expression level: 5.99 and 6.29
Gene CCBL2
  CCBL2 expression level: 14.25 and 13.62
Gene CCDC25
  CCDC25 expression level: 31.76 and 30.83
Gene CCDC92
  CCDC92 expression level: 12.03 and 11.64
Gene CCNJ
  CCNJ expression level: 2.94 and 2.91
Gene CDK4
  CDK4 expression level: 162.09 and 164.93
Gene CDK17
  CDK17 expression level: 8.04 and 8.39
Gene CHCHD4
  CHCHD4 expression level: 19.84 and 19.36
Gene CHN2
  CHN2 expression level: 1.42 and 1.50
Gene CLCN2
  CLCN2 expression level: 5.16 and 5.28
Gene COG1
  COG1 expression level: 10.28 and 10.86
Gene COX19
  COX19 expression level: 6.58 and 7.00
Gene CREB1
  CREB1 expression level: 5.06 and 4.95
Gene CSGALNACT2
  CSGALNACT2 expression level: 10.98 and 11.46
Gene CSNK2A1
  CSNK2A1 expression level: 37.86 and 40.21
Gene CSRNP2
  CSRNP2 expression level: 6.76 and 6.32
Gene CUEDC2
  CUEDC2 expression level: 42.63 and 44.50
Gene DCI
  DCI expression level: 60.10 and 62.67
Gene DCLRE1A
  DCLRE1A expression level: 9.19 and 9.37
Gene DDB2
  DDB2 expression level: 110.42 and 109.59
Gene DDX50
  DDX50 expression level: 29.08 and 28.13
Gene DENND4B
  DENND4B expression level: 17.80 and 17.11
Gene DET1
  DET1 expression level: 3.28 and 3.58
Gene DGKQ
  DGKQ expression level: 6.10 and 5.97
Gene DLG4
  DLG4 expression level: 6.58 and 6.74
Gene DNAJB14
  DNAJB14 expression level: 5.32 and 5.63
Gene DNASE2
  DNASE2 expression level: 67.31 and 73.16
Gene DYM
  DYM expression level: 17.92 and 17.95
Gene EDEM1
  EDEM1 expression level: 13.02 and 13.54
Gene EIF2S3
  EIF2S3 expression level: 260.44 and 268.10
Gene EPRS
  EPRS expression level: 87.21 and 89.05
Gene ESCO1
  ESCO1 expression level: 5.82 and 5.63
Gene ESRRA
  ESRRA expression level: 58.60 and 54.56
Gene ETV6
  ETV6 expression level: 3.21 and 3.17
Gene FAIM3
  FAIM3 expression level: 2.34 and 2.22
Gene FAM83G
  FAM83G expression level: 15.73 and 15.43
Gene FAM102A
  FAM102A expression level: 15.44 and 14.97
Gene FAM107B
  FAM107B expression level: 26.06 and 26.60
Gene FAM119B
  FAM119B expression level: 5.44 and 5.43
Gene FAM176B
  FAM176B expression level: 1.37 and 1.42
Gene FAM179B
  FAM179B expression level: 3.35 and 3.46
Gene FAR1
  FAR1 expression level: 21.55 and 22.22
Gene FBXO22
  FBXO22 expression level: 18.71 and 19.58
Gene FBXW4
  FBXW4 expression level: 11.10 and 10.83
Gene FEM1C
  FEM1C expression level: 5.87 and 6.20
Gene FEZ2
  FEZ2 expression level: 28.49 and 26.84
Gene FLCN
  FLCN expression level: 15.28 and 15.93
Gene FLYWCH1
  FLYWCH1 expression level: 20.36 and 21.57
Gene FOSL2
  FOSL2 expression level: 35.73 and 35.26
Gene FOXF1
  FOXF1 expression level: 7.56 and 7.55
Gene FOXJ2
  FOXJ2 expression level: 9.27 and 9.86
Gene FXYD5
  FXYD5 expression level: 112.40 and 117.32
Gene GATA5
  GATA5 expression level: 1.79 and 1.70
Gene GJD3
  GJD3 expression level: 4.71 and 4.56
Gene GNA13
  GNA13 expression level: 17.15 and 16.92
Gene GORAB
  GORAB expression level: 7.75 and 7.67
Gene GOSR1
  GOSR1 expression level: 11.79 and 11.45
Gene GPC5
  GPC5 expression level: 9.86 and 10.11
Gene GPD1L
  GPD1L expression level: 13.45 and 13.69
Gene GTF2H3
  GTF2H3 expression level: 21.55 and 22.21
Gene HAUS3
  HAUS3 expression level: 7.54 and 8.11
Gene HAUS4
  HAUS4 expression level: 59.72 and 63.77
Gene HDHD2
  HDHD2 expression level: 9.17 and 8.71
Gene HECTD1
  HECTD1 expression level: 31.75 and 32.77
Gene HIF1A
  HIF1A expression level: 79.76 and 77.72
Gene HPS3
  HPS3 expression level: 15.09 and 14.61
Gene HRSP12
  HRSP12 expression level: 13.91 and 14.84
Gene HSD17B1
  HSD17B1 expression level: 4.57 and 4.64
Gene IFNGR1
  IFNGR1 expression level: 18.57 and 18.18
Gene INPP1
  INPP1 expression level: 8.36 and 7.77
Gene IPO13
  IPO13 expression level: 15.99 and 16.09
Gene IQCB1
  IQCB1 expression level: 10.15 and 11.00
Gene KCTD1
  KCTD1 expression level: 4.57 and 4.58
Gene KCTD13
  KCTD13 expression level: 10.32 and 11.29
Gene KIAA0232
  KIAA0232 expression level: 9.33 and 9.86
Gene KIAA0649
  KIAA0649 expression level: 25.63 and 26.16
Gene KIAA0753
  KIAA0753 expression level: 6.64 and 6.86
Gene KRR1
  KRR1 expression level: 19.83 and 18.92
Gene LARS
  LARS expression level: 72.55 and 69.28
Gene LGTN
  LGTN expression level: 39.45 and 39.33
Gene LRP5L
  LRP5L expression level: 3.26 and 3.08
Gene LRPPRC
  LRPPRC expression level: 66.45 and 68.25
